Measurements taken from patent publication US8822503B2, “2-pyridone compounds” (Taisho Pharmaceutical Co., Ltd, priority 2009, dated 2014).

Target: T1, human liver GK (Homo sapiens, UniProt P35557)
T1 construct: GST (glutathione S-transferase) (N); made in house; host or cells: E. coli
T1 sequence (P35557 1-466 isoform P35557-2): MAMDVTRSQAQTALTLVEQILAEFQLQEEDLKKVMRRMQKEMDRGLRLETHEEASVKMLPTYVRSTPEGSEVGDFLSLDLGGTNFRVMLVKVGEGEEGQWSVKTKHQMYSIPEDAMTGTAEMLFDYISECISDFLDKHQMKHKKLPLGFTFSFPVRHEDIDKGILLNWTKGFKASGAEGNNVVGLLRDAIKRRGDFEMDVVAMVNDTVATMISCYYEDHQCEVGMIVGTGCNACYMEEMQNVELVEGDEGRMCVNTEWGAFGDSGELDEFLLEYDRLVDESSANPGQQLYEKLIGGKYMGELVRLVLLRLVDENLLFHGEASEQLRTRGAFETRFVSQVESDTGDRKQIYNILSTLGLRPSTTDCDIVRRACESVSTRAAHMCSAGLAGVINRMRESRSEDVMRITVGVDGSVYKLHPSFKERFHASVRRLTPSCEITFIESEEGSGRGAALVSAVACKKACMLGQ
Assay: GK activation test
Type: biochemical
Conditions: test compound concentration needed to activate 50% of maximum activation ability; 4 mM 14C-labeled glucose, 2 mM ATP, room temperature, 20 minutes
Outline: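 GST-tagged human liver GK from E. coli (0.24 μg/well) with 4 mM 14C-glucose, 2 mM ATP in Hepes-KOH pH 7.1, KCl, MgCl2, DTT, 1% DMSO, 20 min room temperature. Labeled glucose 6-phosphate captured on anion resin, eluted and counted. EC50 = concentration giving half of maximal activation.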

Row | Compound | EC50 [µM]
1 | O=C1CC[C@H](/C=C(\c2ccc(OCC(F)(F)F)c(Cl)c2)c2ccc(C3CC3)c(=O)[nH]2)N1 [Example 4-270, 6-{(E)-1-[3-Chloro-4-(2,2,2-trifluoroethoxy)phenyl]-2-[(2R)-5-oxopyrrolidin-2-yl]ethenyl}-3-cyclopropylpyridin-2(1H)-one] | 0.01 to 0.5
2 | COc1cc(F)c(/C(=C\[C@H]2CCC(=O)N2)c2ccc(C3CC3)c(=O)[nH]2)cc1Cl [Example 4-274, 6-{(E)-1-(5-Chloro-2-fluoro-4-methoxyphenyl)-2-[(2R)-5-oxopyrrolidin-2-yl]ethenyl}-3-cyclopropylpyridin-2(1H)-one] | 0.01 to 0.5
3 | CC(C)Oc1ccc(/C(=C\[C@H]2CCC(=O)N2)c2ccc(C3CC3)c(=O)[nH]2)cc1 [Example 4-276, 3-Cyclopropyl-6-{(E)-2-[(2R)-5-oxopyrrolidin-2-yl]-1-[4-(propan-2-yloxy)phenyl]ethenyl}pyridin-2(1H)-one] | 0.01 to 0.5
4 | O=C1CC[C@H](/C=C(\c2ccc(CO)cc2)c2ccc(Cl)c(=O)[nH]2)N1 [Example 4-277, 3-Chloro-6-{(E)-1-[4-(hydroxymethyl)phenyl]-2-[(2R)-5-oxopyrrolidin-2-yl]ethenyl}pyridin-2(1H)-one] | 3 to 10
5 | CCCOc1ccc(/C(=C\[C@H]2CCC(=O)N2)c2ccc(C3CC3)c(=O)[nH]2)cc1 [Example 4-279, 3-Cyclopropyl-6-[(E)-2-[(2R)-5-oxopyrrolidin-2-yl]-1-(4-propoxyphenyl)ethenyl]pyridin-2(1H)-one] | 0.01 to 0.5
6 | CCCOc1ccc(/C(=C\[C@H]2CCC(=O)N2)c2ccc(C3CC3)c(=O)[nH]2)cc1Cl [Example 4-280, 6-{(E)-1-(3-Chloro-4-propoxyphenyl)-2-[(2R)-5-oxopyrrolidin-2-yl]ethenyl}-3-cyclopropylpyridin-2(1H)-one] | 0.01 to 0.5
7 | O=C1CC[C@H](/C=C(\c2ccc(OC(F)F)c(Cl)c2)c2ccc(C3CC3)c(=O)[nH]2)N1 [Example 4-281, 6-{(E)-1-[3-Chloro-4-(difluoromethoxy)phenyl]-2-[(2R)-5-oxopyrrolidin-2-yl]ethenyl}-3-cyclopropylpyridin-2(1H)-one] | 0.01 to 0.5
8 | CCOc1ccc(/C(=C\[C@H]2CCC(=O)N2)c2ccc(C3CC3)c(=O)[nH]2)c(F)c1F [Example 4-282, 3-Cyclopropyl-6-{(E)-1-(4-ethoxy-2,3-difluorophenyl)-2-[(2R)-5-oxopyrrolidin-2-yl]ethenyl}pyridin-2(1H)-one] | 0.01 to 0.5
9 | O=C1CC[C@H](/C=C(\c2ccc(OC3CCCC3)cc2)c2ccc(C3CC3)c(=O)[nH]2)N1 [Example 4-283, 6-{(E)-1-[4-(Cyclopentyloxy)phenyl]-2-[(2R)-5-oxopyrrolidin-2-yl]ethenyl}-3-cyclopropylpyridin-2(1H)-one] | 0.01 to 0.5
10 | CCOc1ccc(/C(=C\[C@H]2CCC(=O)N2)c2ccc(C3CC3)c(=O)[nH]2)cc1F [Example 4-284, 3-Cyclopropyl-6-{(E)-1-(4-ethoxy-3-fluorophenyl)-2-[(2R)-5-oxopyrrolidin-2-yl]ethenyl}pyridin-2(1H)-one] | 0.01 to 0.5
11 | O=C1CC[C@H](/C=C(\c2ccc(OCCF)cc2)c2ccc(C3CC3)c(=O)[nH]2)N1 [Example 4-287, 3-Cyclopropyl-6-{(E)-1-[4-(2-fluoroethoxy)phenyl]-2-[(2R)-5-oxopyrrolidin-2-yl]ethenyl}pyridin-2(1H)-one] | 0.01 to 0.5
12 | N#Cc1cc(/C(=C\[C@H]2CCC(=O)N2)c2ccc(C3CC3)c(=O)[nH]2)ccc1F [Example 4-288, 5-{(E)-1-(5-Cyclopropyl-6-oxo-1,6-dihydropyridin-2-yl)-2-[(2R)-5-oxopyrrolidin-2-yl]ethenyl}-2-fluorobenzonitrile] | 3 to 10
13 | O=C1CC[C@H](/C=C(\c2ccc(S(=O)(=O)C3CC3)cc2)c2ccc(C3CC3)c(=O)[nH]2)N1 [Example 4-290, 3-Cyclopropyl-6-{(E)-1-[4-(cyclopropylsulfonyl)phenyl]-2-[(2R)-5-oxopyrrolidin-2-yl]ethenyl}pyridin-2(1H)-one] | 0.01 to 0.5
14 | O=C1CC[C@H](/C=C(\c2ccc(S(=O)(=O)Cc3ccccc3)cc2)c2ccc(C3CC3)c(=O)[nH]2)N1 [Example 4-291, 6-{(E)-1-[4-(Benzylsulfonyl)phenyl]-2-[(2R)-5-oxopyrrolidin-2-yl]ethenyl}-3-cyclopropylpyridin-2(1H)-one] | 0.01 to 0.5
15 | O=C1CC[C@H](/C=C(\c2ccc(S(=O)(=O)Cc3ccccc3)c(Cl)c2)c2ccc(C3CC3)c(=O)[nH]2)N1 [Example 4-293, 6-{(E)-1-[4-(Benzylsulfonyl)-3-chlorophenyl]-2-[(2R)-5-oxopyrrolidin-2-yl]ethenyl}-3-cyclopropylpyridin-2(1H)-one] | 0.01 to 0.5

Further lines, results first:

Row | EC50 [µM] | Compound
16 | 0.01 to 0.5 | CCc1ccc(/C(=C\[C@H]2CCC(=O)N2)c2ccc(C3CC3)c(=O)[nH]2)cc1Cl [Example 4-271, 6-{(E)-1-(3-Chloro-4-ethylphenyl)-2-[(2R)-5-oxopyrrolidin-2-yl]ethenyl}-3-cyclopropylpyridin-2(1H)-one]
17 | 0.01 to 0.5 | O=C1CC[C@H](/C=C(\c2ccc(CC(F)(F)F)cc2)c2ccc(C3CC3)c(=O)[nH]2)N1 [Example 4-272, 3-Cyclopropyl-6-{(E)-2-[(2R)-5-oxopyrrolidin-2-yl]-1-[4-(2,2,2-trifluoroethyl)phenyl]ethenyl}pyridin-2(1H)-one]
18 | 0.01 to 0.5 | O=C1CC[C@H](/C=C(\c2ccc(C(F)F)cc2)c2ccc(C3CC3)c(=O)[nH]2)N1 [Example 4-273, 3-Cyclopropyl-6-{(E)-1-[4-(difluoromethyl)phenyl]-2-[(2R)-5-oxopyrrolidin-2-yl]ethenyl}pyridin-2(1H)-one]
19 | 0.01 to 0.5 | CC(C)Oc1ccc(/C(=C\[C@H]2CCC(=O)N2)c2ccc(C3CC3)c(=O)[nH]2)cc1F [Example 4-275, 3-Cyclopropyl-6-{(E)-1-[3-fluoro-4-(propan-2-yloxy)phenyl]-2-[(2R)-5-oxopyrrolidin-2-yl]ethenyl}pyridin-2(1H)-one]
20 | 0.5 to 3 | N#Cc1ccc(/C(=C\[C@H]2CCC(=O)N2)c2ccc(C3CC3)c(=O)[nH]2)cc1 [Example 4-285, 4-{(E)-1-(5-Cyclopropyl-6-oxo-1,6-dihydropyridin-2-yl)-2-[(2R)-5-oxopyrrolidin-2-yl]ethenyl}benzonitrile]
21 | 0.01 to 0.5 | CCOc1ccc(/C(=C\[C@H]2CCC(=O)N2)c2ccc(C3CC3)c(=O)[nH]2)c(Cl)c1 [Example 4-286, 6-{(E)-1-(2-Chloro-4-ethoxyphenyl)-2-[(2R)-5-oxopyrrolidin-2-yl]ethenyl}-3-cyclopropylpyridin-2(1H)-one]
22 | 0.01 to 0.5 | O=C1CC[C@H](/C=C(\c2ccc(S(=O)(=O)C3CC3)c(Cl)c2)c2ccc(C3CC3)c(=O)[nH]2)N1 [Example 4-289, 6-{(E)-1-[3-Chloro-4-(cyclopropylsulfonyl)phenyl]-2-[(2R)-5-oxopyrrolidin-2-yl]ethenyl}-3-cyclopropylpyridin-2(1H)-one]
23 | 0.01 to 0.5 | CN(C)S(=O)(=O)c1ccc(/C(=C\[C@H]2CCC(=O)N2)c2ccc(C3CC3)c(=O)[nH]2)cc1 [Example 4-292, 4-{(E)-1-(5-Cyclopropyl-6-oxo-1,6-dihydropyridin-2-yl)-2-[(2R)-5-oxopyrrolidin-2-yl]ethenyl}-N,N-dimethylbenzenesulfonamide]
24 | 0.01 to 0.5 | CC(C)(C)c1ccc(C(C[C@H]2CCC(=O)N2)c2ccc(C3CC3)c(=O)[nH]2)cc1 (stereo partly drawn) [Example 4-358, 6-{1-(4-tert-Butylphenyl)-2-[(2R)-5-oxopyrrolidin-2-yl]ethyl}-3-cyclopropylpyridin-2(1H)-one]
